One test has as its target PIK3CD (Human) (UniProt O00329). The test is described as follows: Enzyme Assay.
The next test addresses PIK3CB (Human) (UniProt P42338). The test is described as follows: Enzyme Assay.
In a further test the target is PIK3CA (human) (UniProt P42336). The experiment in a line: Enzyme Assay.
For test [1], the target named is PIK3CG (human) (UniProt P48736). The experiment in a line: Enzyme Assay.
For test [2] the target is unchanged. The test is described as follows: Cell-Based Assay. Particulars: u937.
Test [3] has the same target. The experiment in a line: Cell-Based Assay. Particulars: u937. This is another data set of the same source.

Each structure is given as a SMILES string. Where “and” joins values, the source holds several entries; their conditions need not be identical. Equal values may be shown once.

Usually IC50 stands for the concentration at which inhibition is half-maximal.

Chain of PIK3CG (human) (P48736 whole entry, looked up): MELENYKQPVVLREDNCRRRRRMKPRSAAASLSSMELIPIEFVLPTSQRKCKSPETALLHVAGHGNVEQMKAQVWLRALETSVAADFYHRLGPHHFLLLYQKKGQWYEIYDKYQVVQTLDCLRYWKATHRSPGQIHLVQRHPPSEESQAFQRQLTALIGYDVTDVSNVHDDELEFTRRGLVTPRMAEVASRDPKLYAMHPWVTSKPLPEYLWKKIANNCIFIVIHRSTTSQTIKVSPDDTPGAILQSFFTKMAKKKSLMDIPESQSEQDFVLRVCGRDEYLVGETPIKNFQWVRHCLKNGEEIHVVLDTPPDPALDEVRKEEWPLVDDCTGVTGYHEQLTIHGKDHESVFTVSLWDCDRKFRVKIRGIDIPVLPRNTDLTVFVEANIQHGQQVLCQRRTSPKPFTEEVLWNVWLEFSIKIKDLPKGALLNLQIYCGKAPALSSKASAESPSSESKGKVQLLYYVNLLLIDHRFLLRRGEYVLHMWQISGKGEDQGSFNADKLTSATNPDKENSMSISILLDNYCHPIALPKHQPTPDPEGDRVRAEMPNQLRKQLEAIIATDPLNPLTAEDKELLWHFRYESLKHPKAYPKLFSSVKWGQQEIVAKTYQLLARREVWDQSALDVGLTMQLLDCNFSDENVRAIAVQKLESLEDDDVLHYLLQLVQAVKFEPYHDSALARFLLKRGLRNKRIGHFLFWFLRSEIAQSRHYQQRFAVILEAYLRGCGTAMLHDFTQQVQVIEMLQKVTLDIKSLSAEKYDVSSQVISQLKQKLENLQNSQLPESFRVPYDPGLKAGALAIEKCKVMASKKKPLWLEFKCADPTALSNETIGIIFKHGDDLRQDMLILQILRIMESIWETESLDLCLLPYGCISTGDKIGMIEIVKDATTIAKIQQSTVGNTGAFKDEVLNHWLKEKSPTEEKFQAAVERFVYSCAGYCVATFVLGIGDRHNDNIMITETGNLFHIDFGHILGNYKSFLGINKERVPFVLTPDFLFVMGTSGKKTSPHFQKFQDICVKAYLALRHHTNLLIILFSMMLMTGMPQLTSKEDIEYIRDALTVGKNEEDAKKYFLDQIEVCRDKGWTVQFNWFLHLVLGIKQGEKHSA
Chain of PIK3CB (Human) (P42338 whole entry, looked up): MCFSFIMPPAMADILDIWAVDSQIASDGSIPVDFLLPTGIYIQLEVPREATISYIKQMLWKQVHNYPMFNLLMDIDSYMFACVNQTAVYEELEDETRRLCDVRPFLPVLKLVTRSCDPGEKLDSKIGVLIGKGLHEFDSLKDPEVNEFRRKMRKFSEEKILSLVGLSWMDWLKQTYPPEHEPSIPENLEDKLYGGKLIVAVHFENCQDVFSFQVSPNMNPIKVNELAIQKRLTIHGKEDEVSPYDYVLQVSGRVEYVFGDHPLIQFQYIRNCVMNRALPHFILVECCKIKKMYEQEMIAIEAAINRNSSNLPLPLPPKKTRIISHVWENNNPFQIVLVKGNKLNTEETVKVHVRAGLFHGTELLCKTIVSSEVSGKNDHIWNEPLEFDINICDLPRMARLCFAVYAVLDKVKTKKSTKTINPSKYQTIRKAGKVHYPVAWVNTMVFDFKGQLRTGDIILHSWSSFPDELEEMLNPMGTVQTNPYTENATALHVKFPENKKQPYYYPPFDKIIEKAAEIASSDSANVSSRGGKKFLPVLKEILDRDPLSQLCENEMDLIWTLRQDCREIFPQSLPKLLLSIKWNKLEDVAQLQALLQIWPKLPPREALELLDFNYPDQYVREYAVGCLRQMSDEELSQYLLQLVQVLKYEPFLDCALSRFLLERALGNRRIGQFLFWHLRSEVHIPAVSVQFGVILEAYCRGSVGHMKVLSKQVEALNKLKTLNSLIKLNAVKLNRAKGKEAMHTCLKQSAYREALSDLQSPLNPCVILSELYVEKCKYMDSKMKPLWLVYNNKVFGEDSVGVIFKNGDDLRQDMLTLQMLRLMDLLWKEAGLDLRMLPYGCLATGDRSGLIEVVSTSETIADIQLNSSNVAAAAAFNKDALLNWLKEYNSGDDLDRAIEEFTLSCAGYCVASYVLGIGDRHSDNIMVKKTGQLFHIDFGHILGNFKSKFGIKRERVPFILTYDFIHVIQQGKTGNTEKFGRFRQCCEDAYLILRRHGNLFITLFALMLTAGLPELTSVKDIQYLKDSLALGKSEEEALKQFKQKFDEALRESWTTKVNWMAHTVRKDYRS
Chain of PIK3CA (human) (P42336 whole entry, looked up): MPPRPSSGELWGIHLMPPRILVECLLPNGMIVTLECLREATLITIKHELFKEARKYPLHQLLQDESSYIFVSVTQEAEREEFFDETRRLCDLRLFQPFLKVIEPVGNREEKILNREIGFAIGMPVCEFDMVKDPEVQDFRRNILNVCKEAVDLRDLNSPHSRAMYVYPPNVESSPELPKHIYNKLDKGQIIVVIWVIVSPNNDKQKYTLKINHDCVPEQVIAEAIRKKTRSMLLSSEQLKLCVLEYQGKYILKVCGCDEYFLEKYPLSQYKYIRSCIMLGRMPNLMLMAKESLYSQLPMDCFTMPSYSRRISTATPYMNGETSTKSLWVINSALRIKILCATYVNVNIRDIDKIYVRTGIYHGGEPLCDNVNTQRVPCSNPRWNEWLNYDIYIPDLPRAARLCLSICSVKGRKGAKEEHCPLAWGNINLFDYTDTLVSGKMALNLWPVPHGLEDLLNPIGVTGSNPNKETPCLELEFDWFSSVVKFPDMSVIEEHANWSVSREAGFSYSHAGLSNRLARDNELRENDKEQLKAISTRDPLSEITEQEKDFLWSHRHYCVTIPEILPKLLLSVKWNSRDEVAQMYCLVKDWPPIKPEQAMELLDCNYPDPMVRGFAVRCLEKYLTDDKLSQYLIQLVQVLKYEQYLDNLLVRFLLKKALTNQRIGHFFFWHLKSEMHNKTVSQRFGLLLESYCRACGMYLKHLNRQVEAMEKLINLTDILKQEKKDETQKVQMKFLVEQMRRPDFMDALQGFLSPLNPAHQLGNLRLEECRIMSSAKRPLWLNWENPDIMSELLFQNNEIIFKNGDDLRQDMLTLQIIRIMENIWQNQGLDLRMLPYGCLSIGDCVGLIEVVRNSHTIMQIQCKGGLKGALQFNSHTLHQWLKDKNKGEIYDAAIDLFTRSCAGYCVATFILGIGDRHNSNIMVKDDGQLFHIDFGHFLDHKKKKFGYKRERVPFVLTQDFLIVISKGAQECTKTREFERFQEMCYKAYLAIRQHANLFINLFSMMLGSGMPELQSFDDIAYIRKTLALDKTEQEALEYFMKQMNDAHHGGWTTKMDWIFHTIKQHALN
Chain of PIK3CD (Human) (O00329 whole entry, looked up): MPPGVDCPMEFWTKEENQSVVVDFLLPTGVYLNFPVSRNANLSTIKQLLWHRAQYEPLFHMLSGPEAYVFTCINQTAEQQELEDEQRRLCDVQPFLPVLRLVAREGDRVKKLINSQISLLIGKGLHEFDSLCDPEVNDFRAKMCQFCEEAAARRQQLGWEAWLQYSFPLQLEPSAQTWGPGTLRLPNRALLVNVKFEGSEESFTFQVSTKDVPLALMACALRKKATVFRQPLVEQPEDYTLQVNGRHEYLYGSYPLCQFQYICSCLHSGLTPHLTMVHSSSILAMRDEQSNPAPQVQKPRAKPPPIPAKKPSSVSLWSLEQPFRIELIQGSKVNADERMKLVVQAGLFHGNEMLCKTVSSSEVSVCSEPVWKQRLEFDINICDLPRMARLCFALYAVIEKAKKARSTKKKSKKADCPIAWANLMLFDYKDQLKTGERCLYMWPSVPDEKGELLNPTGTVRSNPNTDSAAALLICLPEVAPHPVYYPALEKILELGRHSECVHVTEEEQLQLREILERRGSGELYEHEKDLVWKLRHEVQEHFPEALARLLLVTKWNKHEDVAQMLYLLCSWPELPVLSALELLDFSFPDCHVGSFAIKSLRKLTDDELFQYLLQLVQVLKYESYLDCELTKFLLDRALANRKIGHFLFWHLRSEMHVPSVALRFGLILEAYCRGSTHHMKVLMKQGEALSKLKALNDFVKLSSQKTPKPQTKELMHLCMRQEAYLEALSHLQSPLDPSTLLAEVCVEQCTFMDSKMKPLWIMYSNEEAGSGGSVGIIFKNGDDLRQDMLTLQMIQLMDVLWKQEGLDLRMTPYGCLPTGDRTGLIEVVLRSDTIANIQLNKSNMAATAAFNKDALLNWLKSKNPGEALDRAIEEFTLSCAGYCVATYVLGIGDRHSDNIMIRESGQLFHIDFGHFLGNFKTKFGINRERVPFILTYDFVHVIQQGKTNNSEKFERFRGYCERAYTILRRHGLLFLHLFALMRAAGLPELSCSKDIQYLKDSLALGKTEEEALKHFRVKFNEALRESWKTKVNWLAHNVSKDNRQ

`Cc1ccc(S(=O)(=O)NC[C@H]2CNC[C@@H]2O)cc1-c1cnc(N)c(-n2cncn2)n1`: the IC50 at PIK3CD (Human) stood at 2.4 µM; against PIK3CB (Human) it was 0.73 µM; against PIK3CA (human), 0.96 µM; against PIK3CG (human) [1], 0.14 µM.
In the case of `CN[C@@H]1CCC[C@H]1NS(=O)(=O)c1ccc(C)c(-c2cnc(N)c(-c3ccnc(C)c3)n2)c1`, the IC50 against PIK3CD (Human) stood at 0.91 µM; against PIK3CB (Human), 7.5 µM; against PIK3CA (human) it was 0.73 µM; on PIK3CG (human) [1] it was 0.11 µM.
As for `Cc1ccc(S(=O)(=O)NC[C@@H]2COCCN2C)cc1-c1cnc(N)c(-c2cn(C)nc2C)n1.Cc1ccc(S(=O)(=O)NC[C@H]2COCCN2C)cc1-c1cnc(N)c(-c2cn(C)nc2C)n1`, at PIK3CG (human) [2], the IC50 was 0.241 µM.
Consider `Cc1ccc(S(=O)(=O)N[C@H]2CC[C@@](C)(O)CC2)cc1-c1cnc(N)c(-n2cncn2)n1`, for which the concentration for half-maximal inhibition (IC50) against PIK3CG (human) [3] is 0.103 µM and 0.135 µM.
On the same count and under the same terms, the value for `Cc1ncc(-c2nc(-c3cc(S(=O)(=O)NCC4COCCN4C)ccc3C)cnc2N)s1` (configuration not stated) was 0.145 µM.
For the molecule `Cc1ccc(S(=O)(=O)NCC(C)(C)O)cc1-c1cnc(N)c(-c2nc(C(C)C)no2)n1`, the IC50 is 1.7 µM against PIK3CD (Human), above 10 µM on PIK3CB (Human), 1.2 µM at PIK3CA (human) and 0.061 µM against PIK3CG (human) [1].
Take `Cc1ccc(S(=O)(=O)NCCC(C)(C)O)cc1-c1cnc(N)c(-c2nc(C3CC3)no2)n1`: the IC50 is 0.129 µM on PIK3CG (human) [3]; 0.292 µM against PIK3CD (Human); above 9.1 µM against PIK3CB (Human); 0.2 µM against PIK3CA (human); 0.012 µM on PIK3CG (human) [1].
As for `Cc1ccc(S(=O)(=O)NCC(C)(C)CO)cc1-c1cnc(N)c(-c2nc(C3CC3)no2)n1`, the IC50 was 0.33 µM at PIK3CD (Human), above 9.1 µM on PIK3CB (Human), 1.1 µM against PIK3CA (human) and 0.081 µM at PIK3CG (human) [1].
In the case of `Cc1ccc(S(=O)(=O)NCC[C@@H](O)C(F)(F)F)cc1-c1cnc(N)c(-c2cn(C)nc2C)n1.Cc1ccc(S(=O)(=O)NCC[C@H](O)C(F)(F)F)cc1-c1cnc(N)c(-c2cn(C)nc2C)n1`, the IC50 is 0.06 µM on PIK3CG (human) [3] and 0.337 µM against PIK3CG (human) [2].
Regarding `Cc1ccc(S(=O)(=O)NCC2(O)CCOCC2)cc1-c1cnc(N)c(-n2cncn2)n1`, the IC50 was 0.387 µM against PIK3CG (human) [3]; 1.5 µM at PIK3CD (Human); 1.46 µM against PIK3CB (Human); 0.66 µM on PIK3CA (human); 0.094 µM at PIK3CG (human) [1].
`Cc1ccc(S(=O)(=O)N[C@H]2CC3(C[C@@H](O)C3)C2)cc1-c1cnc(N)c(-c2cn(C)nc2C)n1` (some centres not stated): the IC50 at PIK3CG (human) [3] came to 0.04 µM.
For the molecule `Cc1cc(-c2nc(-c3cc(S(=O)(=O)N[C@H]4CC[C@H](N)CC4)ccc3C)cnc2N)ccn1`, the IC50 on PIK3CG (human) [3] was 0.063 µM; against PIK3CD (Human) it was 1.7 µM; against PIK3CB (Human) it was 5.22 µM; against PIK3CA (human), 0.18 µM; on PIK3CG (human) [1], 0.051 µM.
Regarding `Cc1ncc(-c2nc(-c3cc(S(=O)(=O)NCC(F)(F)F)ccc3C)cnc2N)s1`, the IC50 at PIK3CD (Human) was 0.04 µM; against PIK3CB (Human), 0.99 µM; against PIK3CA (human), 0.04 µM; against PIK3CG (human) [1], 0.005 µM.
Turning to `CN[C@H]1CCC[C@@H]1NS(=O)(=O)c1ccc(C)c(-c2cnc(N)c(-c3ccnc(C)c3)n2)c1`, the IC50 against PIK3CD (Human) was determined as 4.5 µM; at PIK3CB (Human), 2.7 µM; against PIK3CA (human) it was 1.6 µM; on PIK3CG (human) [1], 0.82 µM.
As to `Cc1cc(-c2nc(-c3cc(S(=O)(=O)NCC4CCN(C)C4)ccc3C)cnc2N)ccn1` (configuration not stated), the half-maximal inhibitory concentration (IC50) against PIK3CG (human) [3] was above 10 µM.
On the same count and under the same terms, as for `Cc1ccc(S(=O)(=O)NC[C@H]2CCC(C)(C)O2)cc1-c1cnc(N)c(-n2cncn2)n1`, the figure is 0.411 µM.

Source of the values: the Kinase Knowledgebase extract (Sharma et al. 2016).
